Several values for one entry are separate records, joined by “and”; a condition that tells them apart may be missing. Identical values can stand only once. Like-named read-outs stand apart in the source and are kept apart here.
Key:
PRPK = assay: SSL-induced phosphorylation of PRPK in JB6 cells; type: cell-based; settings: increasing concentrations added to the medium
Protocol: The effect of the binding of rocuronium bromide to PRPK on SSL-induced phosphorylation of PRPK was evaluated. FIG. 13C is a photograph illustrating a chromatographic plate showing the reduction in SSL-induced phosphorylation of PRPK in JB6 cells with increasing concentrations of rocuronium bromide, added into the medium. Thus, rocuronium bromide inhibited sUVL-induced phosphorylation of PRPK.
The effect of the binding of betamethasone 17-valerate to PRPK on SSL-induced phosphorylation of PRPK was evaluated. FIG. 14C is a photograph illustrating a chromatographic plate showing the reduction in SSL-induced phosphorylation of PRPK in JB6 cells with an increasing concentration of betamethasone 17-valerate, added to the medium. Thus, betamethasone 17-valerate inhibited SSL-induced phosphorylation of PRPK.

[1] = test system: SSL-exposed skin of SKH-1 hairless mouse; assay: Acute SSL-induced skin inflammation in SKH-1 hairless mouse skin (H&E, p-PRPK staining and blot); type: in vivo; settings: for sUV-induced increase in PRPK expression / sUV-induced increase in epidermal thickness: topical in cream carrier, 24 h after SSL irradiation, vs untreated sUV-exposed group; for phosphorylation of PRPK in sUV-treated mouse skin / sUV-induced phosphorylation on increasing the concentration: topical treatment; for sUV-induced phosphorylation on increasing the concentration: higher concentration
Protocol: PRPK phosphorylation induced by sUV is a potent stimulator of skin inflammation. Inflammation contributes to tumor development and progression and metastasis often arises in acute and chronic inflammatory skin conditions and increased epidermal thickness is a sign of sUV-induced inflammatory responses. To examine the effect of rocuronium bromide on SSL-induced acute skin inflammation, H&E (haemotoxylin and eosin) staining on SSL-exposed skin tissues of SKH-1 hairless mouse skin was performed. FIG. 15 is a photographic array comparing epidermal thickness in mouse skin samples exposed to one or more of SSL, rocuronium bromide, and betamethasone 17-valerate. FIG. 16 is a photographic array comparing expression of phosphorylated PRPK in immunologically stained mouse skin samples exposed to one or more of SSL, rocuronium bromide, and […]. A cream carrier was used to apply the rocuronium bromide or betamethasone 17-valerate. […] In contrast, application of rocuronium bromide or betamethasone-17-valerate attenuated sUV-induced increases in epidermal thickness and PRPK expression compared to the untreated sUV-exposed group (FIGS. 15 and 16).
FIG. 17 is a photograph illustrating a chromatographic plate comparing the phosphorylation of PRPK in mouse skin tissue samples treated or not treated with rocuronium bromide and exposed or not exposed to SSL. FIG. 18 is a photograph illustrating a chromatographic plate comparing the phosphorylation of PRPK in mouse skin tissue samples treated or not treated with betamethasone 17-valerate and exposed or not exposed to SSL. Topical treatment with rocuronium bromide (FIG. 17) or betamethasone-17-valerate (FIG. 18) decreased phosphorylation of PRPK in sUV-treated mouse skin.

IFN-γ, IL-12 and PGE2 = assay: Immune system markers (IFN-γ, IL-12, PGE2, T-cell markers) in the SSL-induced prevention models; type: in vivo, mouse; settings: for T cell infiltrates in mouse skin: CD3, CD4 markers; for production of IFN-γ in mouse serum: ELISA; for production of IFN-γ in mouse serum / production of IL-12 in mouse serum / production of IL-12 in mouse skin: SSL-induced prevention models; for PGE2 levels in the skin: SSL-exposed skin
From the text: Exposure to UV radiation suppresses the immune response and UV-induced immune suppression is a major risk factor for skin cancer. In particular, UV exposure induces the production of Th2-associated cytokines and interferes with antigen presentation to Th1 cells producing IFN-γ. To determine whether rocuronium bromide or betamethasone 17-valerate affects the immune system response, the level of immune system markers, including interferon-γ (IFN-γ), interleukin-12 (IL-12) and prostaglandin E2 (PGE2), in mouse serum and the T-cell markers, CD3 and CD4, were examined. CD3 is associated with the T-cell receptor (TCR) and is essential in signal transduction in T cells following TCR activation. Tumor microenvironment-mediated down-regulation of TCR-associated signaling leads to the inhibition of T cell function and antitumor immunity in the tumor-bearing host. Very few T cells are observed in the epidermis and dermis of solar UV-induced SCCs.
SSL-induced immunosuppressive responses are associated with production of Th2-related cytokines (IL-10) and disturbance of antigen presentation to Th1 cells producing IFN-γ. Therefore, SSL-induced immunosuppression could be prevented by the Th1 cytokine, IFN-γ. An enzyme-linked immunosorbent assay (ELISA) was performed to examine IFN-γ levels in mouse serum. FIG. 25A is a chart comparing the effect of rocuronium bromide treatment on enhancement of IFN-γ production by immune cells in an early-stage SSL-induced prevention model. IL-12 is an immunoregulatory cytokine to reverse UV-induced DNA damage and immunosuppression, and also regulates the function and development of Th1 type cells by stimulating IFN-γ production. Furthermore, treatment with recombinant IL-12 reversed the UV-induced immunosuppression. Additionally, PGE2 plays a key role as an activator of UV-induced immunosuppression through its down-regulation of the levels of IL-12. Thus, the effects of PRPK inhibitors on SSL-induced changes on the immunoregulatory cytokines, IL-12 and PGE2, were investigated.

[2] = Pharmacokinetics: plasma levels after topical RB cream; type: in vivo, SKH1-Hrhr hairless mice; settings: for ng/ml RB (plasma, single mouse): listed as RB; for concentration at 24 h: 24 h post-dose
Protocol: To assess pharmacokinetics, RB cream (1.0 mg RB in 100 μl cream) was topically applied to the dorsum of SKH1-Hrhr hairless mice (Charles River), and plasma sample were taken at 0, 0.25, 0.5, 1, 2, 6, 24 and 48 hours post-dose (3 mice/time point).

SMILES | SSL-induced phosphorylation of PRPK (PRPK) | sUV-induced increase in PRPK expression [1] | sUV-induced increase in epidermal thickness [1] | phosphorylation of PRPK in sUV-treated mouse skin [1] | sUV-induced phosphorylation on increasing the concentration [1] | T cell infiltrates in mouse skin (IFN-γ, IL-12 and PGE2) | production of IFN-γ in mouse serum (IFN-γ, IL-12 and PGE2) | PGE2 levels in the skin (IFN-γ, IL-12 and PGE2) | production of IL-12 in mouse serum (IFN-γ, IL-12 and PGE2) | production of IL-12 in mouse skin (IFN-γ, IL-12 and PGE2) | other results
CCCCC(=O)O[C@]1(C(=O)CO)[C@@H](C)C[C@H]2[C@@H]3CCC4=CC(=O)C=C[C@]4(C)[C@@]3(F)[C@@H](O)C[C@@]21C [betamethasone 17-valerate] | inhibited | attenuated | attenuated | decreased | further reduced | dense T cell infiltrates | increased | decreased | increased | increased | 
C=CC[N+]1([C@H]2C[C@H]3[C@@H]4CC[C@H]5C[C@H](O)[C@@H](N6CCOCC6)C[C@]5(C)[C@H]4CC[C@]3(C)[C@H]2OC(C)=O)CCCC1 [rocuronium bromide] | inhibited | attenuated | attenuated | decreased | further reduced | dense T cell infiltrates | increased | decreased | increased | increased | time of peak plasma levels post application ([2]; 1.0 mg RB in 100 μl cream topically): ≤ 15 min; ng/ml RB (plasma, single mouse) ([2]; 0.25 h post-dose, 1.0 mg RB in 100 μl cream topically): 3058 ng/mL and 18 ng/mL and 210 ng/mL; ng/ml RB (plasma, single mouse) ([2]; 0.5 h post-dose, 1.0 mg RB in 100 μl cream topically): 123 ng/mL and 36 ng/mL and 73 ng/mL; ng/ml RB (plasma, single mouse) ([2]; 1 h post-dose, 1.0 mg RB in 100 μl cream topically): 7 ng/mL and 25 ng/mL and 48 ng/mL; ng/ml RB (plasma, single mouse) ([2]; 2 h post-dose, 1.0 mg RB in 100 μl cream topically, BDL = below detection limit (~2 ng/ml)): 15 ng/mL; ng/ml RB (plasma, single mouse) ([2]; 6 h post-dose, 1.0 mg RB in 100 μl cream topically, BDL = below detection limit (~2 ng/ml)): 8 ng/mL; concentration at 0.25 h ([2]; SKH1-Hrhr hairless, mouse, plasma, topical, 1 mg, 0.25 h post-dose, 3 mice): 1100 ng/mL; concentration at 0.5 h ([2]; SKH1-Hrhr hairless, mouse, plasma, topical, 1 mg, 0.5 h post-dose, 3 mice): 77.3 ng/mL; concentration at 1 h ([2]; SKH1-Hrhr hairless, mouse, plasma, topical, 1 mg, 1 h post-dose, 3 mice): 26.7 ng/mL; concentration at 2 h ([2]; SKH1-Hrhr hairless, mouse, plasma, topical, 1 mg, 2 h post-dose, 1.0 mg RB in 100 μl cream topically, BDL = below detection limit (~2 ng/ml), read-out: ng/ml RB (plasma, single mouse)): 11 ng/mL; concentration at 2 h ([2]; SKH1-Hrhr hairless, mouse, plasma, topical, 1 mg, 2 h post-dose, 3 mice, read-out: MEAN ng/ml RB (plasma)): 8.7 ng/mL; concentration at 6 h ([2]; SKH1-Hrhr hairless, mouse, plasma, topical, 1 mg, 6 h post-dose, 1.0 mg RB in 100 μl cream topically, BDL = below detection limit (~2 ng/ml), read-out: ng/ml RB (plasma, single mouse)): 7 ng/mL; concentration at 6 h ([2]; SKH1-Hrhr hairless, mouse, plasma, topical, 1 mg, 6 h post-dose, 3 mice, read-out: MEAN ng/ml RB (plasma)): 5 ng/mL; concentration at 24 h ([2]; SKH1-Hrhr hairless, mouse, plasma, topical, 1 mg, 1.0 mg RB in 100 μl cream topically, BDL = below detection limit (~2 ng/ml), read-out: ng/ml RB (plasma, single mouse)): 14 ng/mL; concentration at 24 h ([2]; SKH1-Hrhr hairless, mouse, plasma, topical, 1 mg, 3 mice, read-out: MEAN ng/ml RB (plasma)): 4.7 ng/mL; time at which RB in plasma approaches baseline levels for the assay ([2]; post-dose, 1.0 mg RB in 100 μl cream topically): approximately 6 hours
